Assay type in all cases: in vivo
Series [1] can be described thus: Topical ibuprofen vehicle with tocopherol nicotinate applied to rabbits, ibuprofen in plasma over three hours. The method, then: Test formulations containing 15% ibuprofen-sodium salt, 5% oleic acid, 10% menthol, 5% propylene glycol, 10% dimethylacetamide, 1% decylmethylsulfoxide, 1% u-care, varying amounts of tocopherol nicotinate in the range of 0-1%, and 52-53% deionized water were each blended in a beaker with a mechanical mixer and heated to 40° C. for 30 minutes until clear, then cooled to room temperature.
150 mg of sodium salt-ibuprofen was formulated with a 1-gram dose of the above lipid-based vehicle formulations containing the increasing amounts of the vasodilator tocopherol nicotinate. The Ibuprofen vehicle was topically applied to rabbits and blood samples were taken over a three-hour period. Plasma was prepared and analyzed for the amount of ibuprofen present in the blood. The data represents the integrated value of ibuprofen concentration in the blood for the three hour time period for each concentration of tocopherol nicotinate.

The nature of series [2]: Topical ibuprofen vehicle with tolazoline applied to rabbits, ibuprofen in plasma over three hours. The method, then:
Test formulations containing 15% ibuprofen-sodium salt, 5% oleic acid, 10% menthol, 5% propylene glycol, 10% dimethylacetamide, 1% decylmethylsulfoxide, 1% u-care, varying amounts of tolazoline ranging from 0-0.1%, and 52.9-53% deionized water were each blended in a beaker with a mechanical mixer and heated to 40° C. for 30 minutes until clear, then cooled to room temperature.
150 mg of sodium salt-ibuprofen was formulated with the above lipid-based vehicle formulatiosn containing increasing amounts of the vasodilator tolazoline. The Ibuprofen vehicle was topically applied to rabbits and blood samples were taken over a three-hour period. Plasma was prepared and analyzed for the amount of ibuprofen present in the blood. The data represents the integrated value of ibuprofen concentration in the blood for the three hour time period for each concentration of tolazoline.

Series [3] can be described thus: Topical ibuprofen vehicle with papaverine applied to rabbits, ibuprofen in plasma over three hours. The procedure:
Test formulations containing 15% ibuprofen-sodium salt, 5% oleic acid, 10% menthol, 5% propylene glycol, 10% dimethylacetamide, 1% decylmethylsulfoxide, 1% u-care, varying amounts of papaverine ranging from 0-1%, and 52-53% deionized water were each blended in a beaker with a mechanical mixer and heated to 40° C. for 30 minutes until clear, then cooled to room temperature.
150 mg of sodium salt-ibuprofen was formulated with the above lipid-based vehicle formulatiosn containing increasing amounts of the vasodilator papaverine. The Ibuprofen vehicle was topically applied to rabbits and blood samples were taken over a three-hour period. Plasma was prepared and analyzed for the amount of ibuprofen present in the blood. The data represents the integrated value of ibuprofen concentration in the blood for the three hour time period for each concentration of papaverine.

For the next series, the system named is blood flow. Description: Maximal blood flow stimulated by vasodilator, laser Doppler perfusion imager. The procedure:
Maximal blood flow stimulated by the vasodilator tolazoline was measured using a laser Doppler perfusion imager.

For the compound `CC(C)Cc1ccc(C(C)C(=O)O)cc1` (centres unmarked) [Ibuprofen, ibuprofen], the “integrated value of ibuprofen concentration in the blood (0-3 hr)” value (shortened to “integrated value”) was found to be 3980 ng·h/mL in series [1] (0.00010% tocopherol nicotinate in vehicle); 9480 ng·h/mL in series [1] (0.00025% tocopherol nicotinate in vehicle); 3120 ng·h/mL in series [1] (0.00050% tocopherol nicotinate in vehicle); 5080 ng·h/mL in series [1] (0.0010% tocopherol nicotinate in vehicle); 5840 ng·h/mL in series [1] (0.0100% tocopherol nicotinate in vehicle); 4300 ng·h/mL in series [1] (0.100% tocopherol nicotinate in vehicle). In addition, the “integrated value” value in series [1] (1.000% tocopherol nicotinate in vehicle) was 4400 ng·h/mL; in series [1] (Control (no tocopherol nicotinate), 150 mg sodium salt-ibuprofen in 1 g vehicle) it was 1030 ng·h/mL; in series [2] (0.0010% tolazoline in vehicle), 3900 ng·h/mL; in series [2] (0.0050% tolazoline in vehicle) it was 5240 ng·h/mL; in series [2] (0.0100% tolazoline in vehicle), 5660 ng·h/mL; in series [2] (0.0500% tolazoline in vehicle), 3530 ng·h/mL. Moreover, the “integrated value” value in series [2] (0.100% tolazoline in vehicle) was 4530 ng·h/mL; in series [2] (Control (no tolazoline), 150 mg sodium salt-ibuprofen in vehicle), 1030 ng·h/mL; in series [3] (0.00010% papaverine in vehicle), 5120 ng·h/mL; in series [3] (0.00025% papaverine in vehicle) it was 4470 ng·h/mL; in series [3] (0.00050% papaverine in vehicle), 8370 ng·h/mL; in series [3] (0.0010% papaverine in vehicle) it was 7620 ng·h/mL. The “integrated value” value in series [3] (0.0100% papaverine in vehicle) amounted to 5720 ng·h/mL; in series [3] (0.100% papaverine in vehicle) it was 4230 ng·h/mL; in series [3] (1.000% papaverine in vehicle) it was 6160 ng·h/mL; in series [3] (Control (no papaverine), 150 mg sodium salt-ibuprofen in vehicle), 1030 ng·h/mL.
For `c1ccc(CC2=NCCN2)cc1` [tolazoline], the “concentration at which the maximum blood flow was achieved” value in the series with blood flow is given as 0.5%.

Source of the values: US20060013769A1, “Transdermal drug delivery formulations and method of determining optimal amounts of vasodilators therein” (priority 2004, published 2006).
